The text below walks through data of patent publication US8871753B2, “Macrocyclic compounds and their use as kinase inhibitors” (Incyte Corporation, priority 2008, dated 2014).

One may read the IC50 as the concentration needed to halve the response being measured.

What all share (format): biochemical
Assay [1] has as its target T1, human JAK2 (a.a. 828-1132) (Homo sapiens, UniProt O60674).
T1 construct: JAK2 (a.a. 828-1132); His tag (N); made in house; host or cells: insect cells (baculovirus)
Kind of assay: In vitro JAK kinase assay (HTRF, phosphorylation of a biotinylated peptide), JAK2. As to conditions: Table B1. Put shortly:
(§1)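 Kinase reactions ran at room temperature for 1 h with ATP matched per isoform (JAK1 90 μM, JAK2 30 μM, JAK3 3 μM). After an EDTA stop, the phosphorylated biotin-peptide was read by HTRF using Eu-Py20 and SA-APC after 40 min binding.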
Background: Time-resolved FRET reads energy transfer from a long-lived donor to a nearby acceptor.

The target in assay [2] is T2, Recombinant Human Anaplastic Lymphoma Kinase (Homo sapiens, UniProt Q9UM73).
T2 construct: purchased Invitrogen, Carlsbad, Calif
T2 sequence (Q9UM73 19-1620): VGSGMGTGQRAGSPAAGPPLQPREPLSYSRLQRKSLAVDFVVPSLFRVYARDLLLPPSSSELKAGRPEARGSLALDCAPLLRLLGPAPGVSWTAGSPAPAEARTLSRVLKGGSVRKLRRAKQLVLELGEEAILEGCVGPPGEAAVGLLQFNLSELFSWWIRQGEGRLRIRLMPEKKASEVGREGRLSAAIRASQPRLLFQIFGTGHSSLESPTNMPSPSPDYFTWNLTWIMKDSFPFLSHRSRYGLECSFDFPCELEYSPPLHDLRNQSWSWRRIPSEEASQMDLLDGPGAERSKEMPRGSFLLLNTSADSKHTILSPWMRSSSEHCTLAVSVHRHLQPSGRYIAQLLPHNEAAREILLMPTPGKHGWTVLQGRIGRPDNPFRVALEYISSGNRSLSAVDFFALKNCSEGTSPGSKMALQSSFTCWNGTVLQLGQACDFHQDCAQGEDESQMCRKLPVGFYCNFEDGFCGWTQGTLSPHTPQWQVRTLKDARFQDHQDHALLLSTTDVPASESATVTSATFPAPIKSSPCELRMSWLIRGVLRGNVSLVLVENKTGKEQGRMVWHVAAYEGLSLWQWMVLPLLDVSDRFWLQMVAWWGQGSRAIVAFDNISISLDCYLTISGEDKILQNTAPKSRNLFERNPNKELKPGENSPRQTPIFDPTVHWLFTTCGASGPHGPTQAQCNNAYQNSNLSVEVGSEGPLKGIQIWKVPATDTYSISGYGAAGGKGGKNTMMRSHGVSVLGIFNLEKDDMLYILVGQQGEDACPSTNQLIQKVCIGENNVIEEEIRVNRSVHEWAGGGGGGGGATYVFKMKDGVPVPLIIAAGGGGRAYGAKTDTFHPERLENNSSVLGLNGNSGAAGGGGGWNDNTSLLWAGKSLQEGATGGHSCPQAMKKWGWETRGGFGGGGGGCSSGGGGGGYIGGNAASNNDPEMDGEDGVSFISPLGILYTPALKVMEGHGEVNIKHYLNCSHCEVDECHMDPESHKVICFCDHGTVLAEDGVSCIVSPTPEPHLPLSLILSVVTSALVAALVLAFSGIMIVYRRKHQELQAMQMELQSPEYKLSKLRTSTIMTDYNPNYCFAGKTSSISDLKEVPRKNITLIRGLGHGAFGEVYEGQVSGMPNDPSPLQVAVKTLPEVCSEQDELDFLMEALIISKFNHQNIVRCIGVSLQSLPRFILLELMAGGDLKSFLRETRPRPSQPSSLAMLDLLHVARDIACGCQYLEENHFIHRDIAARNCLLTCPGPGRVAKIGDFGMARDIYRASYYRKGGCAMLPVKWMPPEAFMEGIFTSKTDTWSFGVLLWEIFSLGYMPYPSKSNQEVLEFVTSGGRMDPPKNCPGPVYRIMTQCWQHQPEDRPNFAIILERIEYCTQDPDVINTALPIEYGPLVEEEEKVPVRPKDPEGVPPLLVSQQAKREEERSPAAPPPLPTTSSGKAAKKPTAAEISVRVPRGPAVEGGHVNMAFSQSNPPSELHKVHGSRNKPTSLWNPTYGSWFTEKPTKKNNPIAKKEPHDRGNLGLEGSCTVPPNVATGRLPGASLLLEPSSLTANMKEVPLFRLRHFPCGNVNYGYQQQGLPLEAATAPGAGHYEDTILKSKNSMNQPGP
Kind of assay: ALK HTRF kinase assay. The settings on record: percentage inhibition of the example compound at a concentration of 500 nM or 1 mM (not specified which). Put shortly:
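TR-FRET read-out (Eu anti-pTyr antibody + streptavidin-APC) of biotin-peptide phosphorylation by recombinant human enzyme; IC50 by sigmoidal fit with top/bottom baselines and Hill slope.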

For assay [3], the target named is T3, human JAK1 (a.a. 837-1142) (Homo sapiens, UniProt P23458).
T3 construct: human JAK1 (a.a. 837-1142); His tag (N); made in house; host or cells: insect cells (baculovirus)
T3 sequence (P23458 849-1154): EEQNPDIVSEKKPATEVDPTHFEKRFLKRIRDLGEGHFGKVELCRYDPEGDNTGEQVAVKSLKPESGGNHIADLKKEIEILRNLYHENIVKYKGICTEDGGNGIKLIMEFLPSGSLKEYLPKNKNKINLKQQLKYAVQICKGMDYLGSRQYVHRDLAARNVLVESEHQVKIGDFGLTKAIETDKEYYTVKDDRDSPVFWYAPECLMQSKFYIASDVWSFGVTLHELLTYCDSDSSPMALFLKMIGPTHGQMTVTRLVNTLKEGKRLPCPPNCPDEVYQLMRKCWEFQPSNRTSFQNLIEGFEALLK
Description: In vitro JAK kinase assay (HTRF, phosphorylation of a biotinylated peptide), JAK1. The settings on record: Table B1; read-out: JAK1 IC50. Put shortly: as §1

For the next assay, the target named is TYK2 (Homo sapiens, UniProt P29597). Kind of assay: TYK2 kinase inhibition (Table A1). As to conditions: Table B1.
Sequence of TYK2 (P29597 whole entry): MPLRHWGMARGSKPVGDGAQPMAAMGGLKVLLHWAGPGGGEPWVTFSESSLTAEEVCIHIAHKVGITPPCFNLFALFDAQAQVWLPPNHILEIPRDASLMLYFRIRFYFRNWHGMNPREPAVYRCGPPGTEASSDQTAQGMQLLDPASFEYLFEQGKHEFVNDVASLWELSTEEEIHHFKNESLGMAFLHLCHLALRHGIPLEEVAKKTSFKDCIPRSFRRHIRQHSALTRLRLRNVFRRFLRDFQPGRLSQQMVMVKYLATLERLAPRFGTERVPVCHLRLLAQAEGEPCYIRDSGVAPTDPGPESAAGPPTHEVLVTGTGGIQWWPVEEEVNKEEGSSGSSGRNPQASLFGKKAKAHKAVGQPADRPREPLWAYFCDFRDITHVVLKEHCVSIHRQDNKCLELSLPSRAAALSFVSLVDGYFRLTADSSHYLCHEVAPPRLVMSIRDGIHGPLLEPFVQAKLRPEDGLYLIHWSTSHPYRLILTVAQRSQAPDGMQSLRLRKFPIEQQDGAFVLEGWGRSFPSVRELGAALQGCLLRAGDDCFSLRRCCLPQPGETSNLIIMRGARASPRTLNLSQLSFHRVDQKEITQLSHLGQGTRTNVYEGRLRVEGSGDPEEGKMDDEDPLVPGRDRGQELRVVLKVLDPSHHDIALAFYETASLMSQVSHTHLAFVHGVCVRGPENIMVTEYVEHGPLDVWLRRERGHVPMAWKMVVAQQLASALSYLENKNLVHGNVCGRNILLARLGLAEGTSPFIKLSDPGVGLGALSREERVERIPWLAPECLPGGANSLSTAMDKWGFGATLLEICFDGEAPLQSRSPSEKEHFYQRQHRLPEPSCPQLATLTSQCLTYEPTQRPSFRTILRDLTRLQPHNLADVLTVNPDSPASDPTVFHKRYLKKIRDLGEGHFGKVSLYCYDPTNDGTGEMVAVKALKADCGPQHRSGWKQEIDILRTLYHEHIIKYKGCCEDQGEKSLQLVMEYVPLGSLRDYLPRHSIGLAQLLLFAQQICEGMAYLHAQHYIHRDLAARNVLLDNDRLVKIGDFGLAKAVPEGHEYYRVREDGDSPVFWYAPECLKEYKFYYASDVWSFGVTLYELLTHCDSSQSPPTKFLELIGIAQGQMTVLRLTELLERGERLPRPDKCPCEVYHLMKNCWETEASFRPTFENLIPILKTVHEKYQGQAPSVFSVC
Assay [4] deals with T4, human JAK3 (a.a. 781-1124) (Homo sapiens, UniProt P52333).
T4 construct: JAK3 (a.a. 781-1124); His tag (N); made in house; host or cells: insect cells (baculovirus)
T4 sequence (P52333 781-1124): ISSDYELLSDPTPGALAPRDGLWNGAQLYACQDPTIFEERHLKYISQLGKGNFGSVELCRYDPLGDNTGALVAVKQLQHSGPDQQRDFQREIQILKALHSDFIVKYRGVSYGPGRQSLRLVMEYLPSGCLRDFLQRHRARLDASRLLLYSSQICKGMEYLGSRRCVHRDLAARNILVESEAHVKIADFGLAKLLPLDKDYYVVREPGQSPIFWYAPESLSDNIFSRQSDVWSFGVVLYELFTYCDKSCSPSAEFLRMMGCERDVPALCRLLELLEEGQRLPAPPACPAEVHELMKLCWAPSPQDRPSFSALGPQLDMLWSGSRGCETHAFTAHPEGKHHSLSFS
Kind of assay: In vitro JAK kinase assay (HTRF, phosphorylation of a biotinylated peptide), JAK3. As to conditions: Table B1. Put shortly:
as §1

T1 sequence (O60674 828-1132): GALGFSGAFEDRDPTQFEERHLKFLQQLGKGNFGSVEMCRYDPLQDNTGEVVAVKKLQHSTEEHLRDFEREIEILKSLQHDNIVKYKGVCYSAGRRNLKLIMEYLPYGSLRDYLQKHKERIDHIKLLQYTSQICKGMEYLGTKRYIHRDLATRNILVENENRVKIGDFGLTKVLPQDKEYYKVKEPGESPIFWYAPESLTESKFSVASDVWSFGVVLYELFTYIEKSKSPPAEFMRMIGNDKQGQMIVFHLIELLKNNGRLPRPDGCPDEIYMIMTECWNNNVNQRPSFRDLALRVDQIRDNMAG

Turning to `N#Cc1ccc(N2CCN(C(=O)Nc3ccc4cc3CCc3cncc(c3)Nc3ncc(Cl)c(n3)N4)CC2)cc1` [Example B303, N-[6-Chloro-2,4,8,18,22-pentaazatetracyclo[14.3.1.1(3,7).1(9,13)]docosa-1(20),3(22),4,6,9(21),10,12,16,18-nonaen-12-yl]-4-(4-cyanophenyl)piperazine-1-carboxamide tris(trifluoroacetate)], the IC50 in assay [1] was 161 nM; in assay [3] it was 19 nM; at TYK2 it was 36 nM; in assay [4] it was over 400 nM. In addition, in assay [2], the “ALK % of inhibition at a concentration of 500 nM or 1 mM” value (“ALK % of inhibition” below) turned out to be 81%.

For the molecule `COc1cccc(N2CCN(C(=O)Nc3ccc4cc3CCc3cncc(c3)Nc3ncc(Cl)c(n3)N4)CC2)c1` [Example B304, N-[6-Chloro-2,4,8,18,22-pentaazatetracyclo[14.3.1.1(3,7).1(9,13)]docosa-1(20),3(22),4,6,9(21),10,12,16,18-nonaen-12-yl]-4-(3-methoxyphenyl)piperazine-1-carboxamide tris(trifluoroacetate)], the IC50 is 300 nM in assay [1], 58 nM in assay [3], 90 nM on TYK2 and over 400 nM in assay [4]. In assay [2], the “ALK % of inhibition” value turned out to be 67%.

Take `O=C(Nc1ccc2cc1CCc1cncc(c1)Nc1ncc(Cl)c(n1)N2)N1CCN(c2ccccc2Cl)CC1` [Example B305, N-[6-Chloro-2,4,8,18,22-pentaazatetracyclo[14.3.1.1(3,7).1(9,13)]docosa-1(20),3(22),4,6,9(21),10,12,16,18-nonaen-12-yl]-4-(2-chlorophenyl)piperazine-1-carboxamide bis(trifluoroacetate)]: the IC50 is 148 nM in assay [1], 15 nM in assay [3], 38 nM on TYK2 and over 400 nM in assay [4]. In addition, the “ALK % of inhibition” value in assay [2] came to 79%.

Regarding `O=C(Nc1ccc2cc1CCc1cncc(c1)Nc1ncc(Cl)c(n1)N2)N1CCN(c2cccc(Cl)c2)CC1` [Example B306, N-[6-Chloro-2,4,8,18,22-pentaazatetracyclo[14.3.1.1(3,7).1(9,13)]docosa-1(20),3(22),4,6,9(21),10,12,16,18-nonaen-12-yl]-4-(3-chlorophenyl)piperazine-1-carboxamide tris(trifluoroacetate)], the IC50 was 265 nM in assay [1], 27 nM in assay [3], 43 nM on TYK2 and over 400 nM in assay [4]. Moreover, the “ALK % of inhibition” value in assay [2] is 72%.

For the molecule `O=C(Nc1ccc2cc1CCc1cncc(c1)Nc1ncc(Cl)c(n1)N2)N1CCN(c2ccc(Cl)cc2)CC1` [Example B307, N-[6-Chloro-2,4,8,18,22-pentaazatetracyclo[14.3.1.1(3,7).1(9,13)]docosa-1(20),3(22),4,6,9(21),10,12,16,18-nonaen-12-yl]-4-(4-chlorophenyl)piperazine-1-carboxamide tris(trifluoroacetate)], the IC50 was 217 nM in assay [1], 36 nM in assay [3], 66 nM on TYK2 and over 400 nM in assay [4]. The “ALK % of inhibition” value in assay [2] is 74%.

`Cc1cncc(N2CCN(C(=O)Nc3ccc4cc3CCc3cncc(c3)Nc3ncc(Cl)c(n3)N4)CC2)n1` [Example B308, N-[6-Chloro-2,4,8,18,22-pentaazatetracyclo[14.3.1.1(3,7).1(9,13)]docosa-1(20),3(22),4,6,9(21),10,12,16,18-nonaen-12-yl]-4-(6-methylpyrazin-2-yl)piperazine-1-carboxamide tris(trifluoroacetate)]: the IC50 in assay [1] is 83 nM; in assay [3] it was 16 nM; against TYK2 it was 34 nM; in assay [4], over 400 nM. Moreover, the “ALK % of inhibition” value in assay [2] is reported as 79%.
